What was measured:
[1] = system: caspase-3/7 in U2OS cells; assay: Caspase-3/7 activation assay; format: cell-based
Protocol: (§1) Caspase-3/7 activation assay. Cells (5×10^3 cells/well) were seeded in a 96-well white plate and treated with MASM7, MFI8. Caspase 3/7 activation was measured after 6 hr by addition of the Caspase-Glo 3/7 reagent according to the manufacturer's protocol (Promega). Luminescence was detected by a F200 PRO microplate reader (TECAN). Caspase assays were performed in at least triplicate and the data normalized to vehicle-treated control wells. Dilutions of MASM7 or MFI8 were performed using a TECAN D300e Digital Dispenser from 10 mM stocks.

MOLM13 cells = assay: Caspase 3/7 activation with AMG-176; format: cell-based; conditions: increasing concentrations of AMG-176 and MFI8
Protocol: as §1

caspase-3/7 in MEFs = assay: Caspase-3/7 activation assay; format: cell-based, mouse
Protocol: as §1

MEFs [2] = assay: RNA-seq; format: cell-based, mouse
Text: RNA-seq. Sequencing results were demultiplexed and converted to FASTQ format using Illumina bcl2fastq software. The sequencing reads were adapter and quality trimmed with Trimmomatic and then aligned to the mouse genome (build mm10/GRCm38) using the splice-aware STAR aligner. The featureCounts program was utilized to generate counts for each gene based on how many aligned reads overlap its exons. These counts were then normalized and used to test for differential expression using negative binomial generalized linear models implemented by the DESeq2 R package.

MFN1 and MFN2 = MFN1 and MFN2 gene expression and protein levels; format: cell-based
Protocol: Western blot. Western blots were performed from whole cell lysates (WCL) prepared in lysis buffer containing 50 mM Tris-HCl pH 7.5, 1% Triton X-100, 150 mM NaCl, 5 mM MgCl2, 1 mM EGTA and 10% glycerol in the presence of protease inhibitor cocktail (Roche).
Analysis of mitochondrial biogenesis-related genes by q-PCR. Total RNA was extracted by using RNeasy Mini Kit (Qiagen) followed by cDNA synthesis using the SuperScript IV VILO Master Mix (Thermo Scientific), both performed according to the manufacturer's protocol. q-PCR was performed using the following primers: […]
For the q-PCR reaction, Power SYBR Green master mix (Thermo Scientific) was used according to the manufacturer's instructions. Briefly, each reaction consisted of 10 ng cDNA, 5 μL Power SYBR Green master mix, 200 nM primers (forward and reverse), and RNase-free water up to 10 μL. q-PCR was performed on the ViiA 7 Real-Time PCR System (Thermo Scientific) with the following cycle parameter: 95° C. for 10 min, 40 cycles of 95° C. for 15 s, and 60° C. for 1 min. q-PCR products were analyzed by melting curves for unspecific products or primer dimer formation.

MEFs [3] = assay: Metabolomics (TCA cycle, NAD/NADH); format: cell-based, mouse
Protocol: Metabolomics. MEFs were treated with MASM7 and MFI8. Cells were harvested using a cell scraper and centrifuged at 1200 rpm in 4° C. for 3 min. Each cell pellet sample was suspended into 250 to 700 μL of 80% aqueous methanol in an Eppendorf tube. The samples were vortex mixed for 15 s and sonicated in an ice-water bath for 5 min, followed by centrifugal clarification at 15,000 rpm and 5° C. in an Eppendorf 5424R centrifuge. The clear supernatants were collected. A standard stock solution of TCA cycle carboxylic acids, NAD and NADH was prepared in 80% methanol as S1. This standard solution S1 was serially diluted 1 to 4 (v/v) with the same solvent to make standard solutions S2 to S10. 20 μL of each standard solution and an aliquot of the clear supernatant from each cell was mixed with 20 μL of an internal standard solution containing 9 ^13C- or deuterium labeled analogues of the TCA cycle carboxylic acids (except isocitric acid), 20 μL of 200 mM 3-NPH solution and 20 μL of 150 mM of EDC solution. The mixtures were allowed to react at 30° C. for 30 min. After reaction, 120 μL of water was added to each solution. 10 μL of the resultant solutions was injected into a C18 UPLC column to quantitate the TCA cycle carboxylic acids by UPLC-MRM/MS with (−) ion detection, according to the procedure we described in a publication.

U2OS cells = assay: Cell death with BV6; format: cell-based
Protocol: (§2) Cell death assay. Cells (2×10^5 cells/well) were seeded in a 6-well plate and treated with the indicated drugs for 6 hours. Cells were dissociated using Accutase (Thermo Fisher; Cat. #00-4555-56) in order to avoid accidental exposure of phosphatidylserine on the outer plasma membrane. Cell death was evaluated with Dead Cell Apoptosis Kit with Annexin V Alexa Fluor™ 488 & Propidium Iodide (Thermo Fisher; Cat. #V13241) according to manufacturer's protocol. Data was acquired by BD LSRII flow cytometer system using BD FACSDiva software. Data was analyzed by FlowJo (BD).

THP-1 cells = assay: Cell death with BV6; format: cell-based
Protocol: as §2

MEFs [4] = assay: Cytochrome C release; format: cell-based, mouse; conditions: 6 hrs; mitofusin dependent
Protocol: Cytochrome C release. MEFs were seeded in a […] and grown at ~70% confluence. Following 6 hrs treatment with MFI8, cells were harvested and lysed in digitonin buffer [20 mM Hepes, pH 7.2, 10 mM KCl, 5 mM MgCl2, 1 m MEDTA, 1 mM EGTA, 250 mM sucrose, 0.025% Digitonin (from 5% w/v stock) and complete protease inhibitors (Roche Applied Science)] on ice for 10 min. Then, supernatants were isolated by centrifugation at 15,000×g for 10 min. Mitochondrial pellets solubilized in 1% Triton X-100/PBS for 1 hr at 4° C. Solubilized Pellets were subjected to a 14,000×rpm spin for 10 min. Samples were prepared for western blot analysis and separated by 4-12% NuPage (Life Technologies).

MEFs [5] = assay: Mitochondrial respiration in cellulo (OCR); format: cell-based, mouse; conditions: WT MEFs; MASM7 1 μM or MFI8 20 μM, 6 hrs
Protocol: Mitochondrial respiration in cellulo. Mitochondrial oxygen consumption rates (OCR) were assessed using a XF24 Analyzer (Seahorse Biosciences, Billerica MA, USA). In brief, 3×10^4 MEFs were cultured in a XF24 cell culture microplate containing DMEM supplemented with 10% fetal bovine serum. Cells were treated with MASM7 (1 μM) or MFI8 (20 μM) 6 hrs prior to OCR analysis. Mitochondrial respiration was assessed by the sequential addition of oligomycin (1 μM), carbonyl cyanide-4-(trifluoromethoxy)phenylhydrazone (FCCP, 2 μM) and rotenone (1 μM)-antimycin (1 μM) as previously reported. OCR was normalized to cell number or total protein content per well for each condition tested.

Cc1cccc(NC(C)c2cc(Cl)ccc2O)c1C (centres unmarked) [MFI8]
caspase-3/7 activation [1]: induced caspase-3/7 activation
caspase 3/7 activation in combination with AMG-176 (MOLM13 cells): sensitizes cells to caspase activation in response to BH3 mimetic (MCL-1 inhibitor) AMG-176 treatment
caspase-3/7 activity (caspase-3/7 in MEFs; 6 hr): concentration-responsively increased caspase-3/7 activity
caspase 3/7 activity (caspase-3/7 in MEFs; deletion of APAF-1): detrimental for the capacity of MFI8 to increase caspase 3/7 activity
caspase-3/7 activity (caspase-3/7 in MEFs; deletion of MFN1/MFN2): impaired the capacity of MFI8 to increase caspase-3/7 activity
genes involved in DNA damage response (MEFs [2]; MEFs): up-regulated several genes that are involved in DNA damage response
gene expression of subunits of the respiratory complexes (MEFs [2]; RNA-seq): reduced the gene expression of several nuclear-encoded subunits of the respiratory complexes
MFN1 and MFN2 gene expression and protein levels (MFN1 and MFN2): neither MASM7 nor MFI8 altered
metabolites of the TCA cycle (MEFs [3]): markedly reduced several metabolites such as malate, oxaloacetate, and α-ketoglutarate
total NAD+/NADH ratio (MEFs [3]): decreased the total NAD^+/NADH ratio
cell death in combination with BV6 (U2OS cells): synergistically induce cell death
cell death in combination with BV6 (THP-1 cells): synergistically induce cell death
cytochrome c release to the cytosol (MEFs [4]): cytochrome c was released to the cytosol, albeit at modest levels
respiration and mitochondrial ATP production (MEFs [5]): reduced respiration and mitochondrial ATP production

— patent US20260274810A1, “NOVEL MITOFUSIN INHIBITORS” (ALBERT EINSTEIN COLLEGE OF MEDICINE, priority 2023, published 2026)
